Values quoted from earlier work, collected in patent publication US11291622B2, “Method for dyeing keratinous material, comprising the use of an organosilicon compound, a dyeing compound and a silicon oil” (Henkel AG & Co. KGaA, priority 2018, dated 2022).
Where two headings read alike, the source gives them in different places.

CCN(Cc1cccc(S(=O)(=O)[O-])c1)c1ccc(C(=C2C=CC(=[N+](CC)Cc3cccc(S(=O)(=O)[O-])c3)C=C2)c2ccccc2S(=O)(=O)[O-])cc1.[Na+].[Na+] [Acid Blue 9]
solubility in water (25° C.): more than 20 % by weight

O=S(=O)([O-])c1ccc(N=Nc2c(O)ccc3ccccc23)cc1.[Na+] [Acid Orange 7, sodium salt of 4-[(2-hydroxy-1-naphthyl)azo]benzene sulphonate]
solubility in water (25° C.): more than 7 g/L

Nc1cc(S(=O)(=O)[O-])cc2cc(S(=O)(=O)[O-])c(N=Nc3ccccc3)c(O)c12.[Na+].[Na+] [Acid Red 33, diantrium salt of 5-amino-4-hydroxy-3-(phenylazo)-naphthalene-2,7-disulphonate]
solubility in water (25° C.): about 2.5 g/L

O=C([O-])C1=NN(c2ccc(S(=O)(=O)[O-])cc2)C(=O)C1N=Nc1ccc(S(=O)(=O)[O-])cc1.[Na+].[Na+].[Na+] (centres unmarked) [Acid Yellow 23, trisodium salt of 4,5-dihydro-5-oxo-1-(4-sulfophenyl)-4-((4-sulfophenyl)azo)-1H-pyrazole-3-carboxylic acid]
solubility in water (at about 25° C.): highly soluble in water

mixture of the sodium salts of mono- and disulfonic acids of 2-(2-quinolyl)-1H-indene-1,3(2H)-dione [Acid Yellow 3]
solubility in water (25° C.): about 20 g/L
